{"source": "patent US20080171766A1", "about": "“Novel Method” (SMITHKLINE BEECHAM CORPORATION, priority 2005, published 2008)", "key": {"[1]": {"system": "H. influenzae BLNAR (beta lactamase negative ampicillin resistant)", "experiment": "MIC by broth microdilution, H. influenzae BLNAR", "assay_type": "cell-based", "conditions": "H. influenzae (5 isolates) BLNAR; Compound A n = 4", "experimental": "(§1) Whole-cell antimicrobial activity was determined by broth microdilution. Test compounds were dissolved in DMSO and diluted 1:10 in water to produce a 64 mcg/ml stock solution. Using a 96 well microtitre plate, a Microlab AT Plus 2 (Hamilton Co., Reno, Nev.) serially diluted 50 ul of the stock solution into an appropriate broth medium. Staphylococcal isolates were tested using cation adjusted Mueller Hinton broth. For S. pneumonaie testing, the Mueller Hinton broth was supplemented with 5% lysed horse blood and H. influenzae was tested with Haemophilus Test Medium. After the compounds were diluted, a 50 ul aliquot of the test isolate (˜1×10^6 cfu/ml) prepared in normal saline was added to each well of the microtitre plate. The final test concentrations ranged from 0.016-16 ug/mL. Inoculated plates were incubated at 35 °C in ambient air for 18 to 24 hours. The minimum inhibitory concentration (MIC) was determined as the lowest concentration of compound that inhibited visible growth."}, "[2]": {"system": "S. aureus VISA (vancomycin intermediate Staphylococcus aureus)", "experiment": "MIC by broth microdilution, VISA", "assay_type": "cell-based", "experimental": "as §1"}, "[3]": {"system": "S. aureus Linezolid resistant", "experiment": "MIC by broth microdilution, linezolid resistant S. aureus", "assay_type": "cell-based, Staphylococcus aureus", "conditions": "S. aureus (3 isolates) Linezolid resistant", "experimental": "as §1"}, "[4]": {"system": "H. influenzae ClarR (clarithromycin resistant)", "experiment": "MIC by broth microdilution, H. influenzae ClarR", "assay_type": "cell-based", "conditions": "H. influenzae (5 isolates) ClarR; Compound A n = 3", "experimental": "as §1"}, "[5]": {"system": "S. aureus MRSA (methicillin resistant Staphylococcus aureus)", "experiment": "MIC by broth microdilution, MRSA", "assay_type": "cell-based", "conditions": "S. aureus MRSA (61 isolates); not all isolates tested against fusidic acid", "experimental": "as §1"}, "[6]": {"system": "S. aureus Macrolide^r (macrolide resistant)", "experiment": "MIC by broth microdilution, macrolide resistant S. aureus", "assay_type": "cell-based, Staphylococcus aureus", "conditions": "S. aureus Macrolide^r (69 isolates); not all isolates tested against fusidic acid", "experimental": "as §1"}, "[7]": {"system": "S. aureus Mupirocin^r (mupirocin resistant)", "experiment": "MIC by broth microdilution, mupirocin resistant S. aureus", "assay_type": "cell-based, Staphylococcus aureus", "conditions": "S. aureus Mupirocin^r (32 isolates); not all isolates tested against fusidic acid", "experimental": "as §1"}, "[8]": {"system": "S. aureus MRSA&Mup^r (methicillin resistant & mupirocin resistant Staphylococcus aureus)", "experiment": "MIC by broth microdilution, MRSA&Mup^r", "assay_type": "cell-based", "conditions": "S. aureus MRSA&Mup^r (14 isolates); not all isolates tested against fusidic acid", "experimental": "as §1"}, "[9]": {"system": "S. aureus Fusidic acid^r (fusidic acid resistant)", "experiment": "MIC by broth microdilution, fusidic acid resistant S. aureus", "assay_type": "cell-based, Staphylococcus aureus", "conditions": "S. aureus Fusidic acid^r (6 isolates)", "experimental": "as §1"}, "[10]": {"conditions": "S. aureus (4 isolates) VISA (vanc. MIC 4), second part of table"}, "[11]": {"conditions": "S. aureus VISA (6 isolates), first part of table"}}, "data": [{"smiles": "CC1(C)S[C@@H]2[C@H](NC(=O)[C@H](N)c3ccc(O)cc3)C(=O)N2[C@H]1C(=O)O", "note": "[Amoxicillin]", "values": [{"measurement": "MIC Range", "setting": "[1]", "value": "4 to 16", "unit": "µg/mL"}, {"measurement": "MIC Range", "setting": "[2]; [10]", "value": "8 to 32", "unit": "µg/mL"}, {"measurement": "MIC Range", "setting": "[3]", "value": ">32", "unit": "µg/mL"}]}, {"smiles": "CC[C@H]1OC(=O)[C@H](C)[C@@H](O[C@H]2C[C@@](C)(OC)[C@@H](O)[C@H](C)O2)[C@H](C)[C@@H](O[C@@H]2O[C@H](C)C[C@H](N(C)C)[C@H]2O)[C@](C)(O)C[C@@H](C)CN(C)[C@H](C)[C@@H](O)[C@]1(C)O", "note": "[Azithromycin]", "values": [{"measurement": "MIC Range", "setting": "[1]", "value": "1 to 2", "unit": "µg/mL"}, {"measurement": "MIC Range", "setting": "[3]", "value": 0.5, "unit": "µg/mL"}]}, {"smiles": "CO/N=C(\\C(=O)N[C@@H]1C(=O)N2C(C(=O)O)=C(COC(N)=O)CS[C@H]12)c1ccco1", "note": "[Cefuroxime]", "values": [{"measurement": "MIC Range", "setting": "[1]", "value": "8 to 16", "unit": "µg/mL"}, {"measurement": "MIC Range", "setting": "[2]; [10]", "value": ">16", "unit": "µg/mL"}, {"measurement": "MIC Range", "setting": "[4]", "value": "0.5 to 1", "unit": "µg/mL"}, {"measurement": "MIC Range", "setting": "[3]", "value": ">16", "unit": "µg/mL"}]}, {"smiles": "C=C[C@]1(C)C[C@@H](OC(=O)CSC2CC3CCC(C2)N3C)[C@]2(C)C(C)CC[C@]3(CCC(=O)[C@H]32)[C@@H](C)[C@@H]1O", "note": "(stereo partly drawn) [Compound A, mutilin 14-(exo-8-methyl-8azabicyclo[3.2.1]oct-3-ylsulfanyl)-acetate]", "values": [{"measurement": "MIC Range", "setting": "[1]", "value": "2 to 4", "unit": "µg/mL"}, {"measurement": "MIC Range", "setting": "[5]", "value": "<0.016 to 0.5", "unit": "µg/mL"}, {"measurement": "MIC Range", "setting": "[6]", "value": "0.03 to 0.5", "unit": "µg/mL"}, {"measurement": "MIC Range", "setting": "[2]; [10]", "value": "0.06 to 1", "unit": "µg/mL"}, {"measurement": "MIC Range", "setting": "[2]; [11]", "value": "<0.06 to 1", "unit": "µg/mL"}, {"measurement": "MIC Range", "setting": "[7]", "value": "<0.016 to 0.5", "unit": "µg/mL"}, {"measurement": "MIC Range", "setting": "[4]", "value": "0.12 to 0.25", "unit": "µg/mL"}, {"measurement": "MIC Range", "setting": "[8]", "value": "<0.016 to 0.12", "unit": "µg/mL"}, {"measurement": "MIC Range", "setting": "[3]", "value": "1 to 2", "unit": "µg/mL"}, {"measurement": "MIC Range", "setting": "[9]", "value": "<0.016 to 0.03", "unit": "µg/mL"}]}, {"smiles": "CC(=O)O[C@H]1C[C@@]2(C)[C@@H](C[C@@H](O)[C@H]3[C@@]4(C)CC[C@@H](O)[C@@H](C)[C@@H]4CC[C@@]32C)/C1=C(\\CCC=C(C)C)C(=O)O", "note": "[Fusidic acid]", "values": [{"measurement": "MIC Range", "setting": "[5]", "value": "0.12 to 1", "unit": "µg/mL"}, {"measurement": "MIC Range", "setting": "[6]", "value": "0.12 to 1", "unit": "µg/mL"}, {"measurement": "MIC Range", "setting": "[8]", "value": "0.12 to 0.5", "unit": "µg/mL"}, {"measurement": "MIC Range", "setting": "[9]", "value": ">16", "unit": "µg/mL"}]}, {"smiles": "C[C@H]1COc2c(N3CCN(C)CC3)c(F)cc3c(=O)c(C(=O)O)cn1c23", "note": "[Levofloxacin]", "values": [{"measurement": "MIC Range", "setting": "[1]", "value": "<0.016", "unit": "µg/mL"}, {"measurement": "MIC Range", "setting": "[2]; [10]", "value": "8 to 64", "unit": "µg/mL"}, {"measurement": "MIC Range", "setting": "[4]", "value": "<0.016", "unit": "µg/mL"}, {"measurement": "MIC Range", "setting": "[3]", "value": 16, "unit": "µg/mL"}]}, {"smiles": "C/C(=C\\C(=O)OCCCCCCCCC(=O)O)C[C@@H]1OC[C@H](C[C@@H]2O[C@H]2[C@@H](C)[C@H](C)O)[C@@H](O)[C@H]1O", "note": "[Mupirocin]", "values": [{"measurement": "MIC Range", "setting": "[2]; [11]", "value": "<1", "unit": "µg/mL"}]}, {"smiles": "CC[C@H]1OC(=O)[C@H](C)C(=O)[C@H](C)[C@@H](O[C@@H]2O[C@H](C)C[C@H](N(C)C)[C@H]2O)[C@](C)(OC)C[C@@H](C)C(=O)[C@H](C)[C@H]2N(CCCCn3cnc(-c4cccnc4)c3)C(=O)O[C@]12C", "note": "[Telithromycin]", "values": [{"measurement": "MIC Range", "setting": "[1]", "value": 1, "unit": "µg/mL"}, {"measurement": "MIC Range", "setting": "[3]", "value": "0.03 to 0.06", "unit": "µg/mL"}]}]}
